Columns and labels:
[1] = target: T1, Cdk2[C177A, F80C, K278C] (Homo sapiens, UniProt P24941, C177A/F80C/K278C); assay: Kinetic thiol consumption assay with mutant Cdk2 as model thiol; assay type: binding; set-up: unit not given here; conditions: 500 μM ligand, 5 μM thiol, phosphate buffer pH 8
T1 construct: poly-histidine; made in house; host or cells: E. coli
How it was run: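 Model thiol: His-tagged human Cdk2 C177A/F80C/K278C (two engineered surface cysteines), E. coli-expressed, 5 μM in degassed phosphate buffer pH 8 with immobilized TCEP beads (2% v/v). Fluorescence (ex/em 380/470 nm) followed over time at room temperature, normalized to DMSO/thiol control. First-order decay fit gives rate constants.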

[2] = target: T2, Cdk2(S181C) (C177A) (Homo sapiens, UniProt P24941, C177A/S181C); assay: Kinetic thiol consumption assay with Cdk2 mutant S181C; assay type: binding; set-up: key to Rate enhancement, Cdk2 S181C: rate constant with Cdk2 ÷ rate constant with model thiol (fold); conditions: additional mutation C177A; for Rate constant with Cdk2 S181C: Protein: Cdk2, cysteine position S181C, in h^-1
T2 construct: poly-histidine; made in house; host or cells: E. coli
How it was run: (§1)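 His-tagged single-surface-cysteine Cdk2 mutants (C177A background) from E. coli, 5 μM in degassed phosphate buffer pH 8, pre-treated with immobilized TCEP beads. Fluorescence (ex/em 380/470 nm) read after 1 h at room temperature, normalized to DMSO/thiol-only control; first-order decay fits gave rate constants, divided by model-thiol rate for rate enhancement.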

[3] = target: T3, Cdk2(S276C) (C177A) (Homo sapiens, UniProt P24941, C177A/S276C); assay: Kinetic thiol consumption assay with Cdk2 mutant S276C; assay type: binding; set-up: key to Rate enhancement, Cdk2 S276C: rate constant with Cdk2 ÷ rate constant with model thiol (fold); conditions: additional mutation C177A; for Rate constant with Cdk2 S276C: Protein: Cdk2, cysteine position S276C, in h^-1
T3 construct: poly-histidine; made in house; host or cells: E. coli
How it was run: as §1

[4] = target: T4, Cdk2(H71C) (C177A) (Homo sapiens, UniProt P24941, C177A/H71C); assay: Kinetic thiol consumption assay with Cdk2 mutant H71C; assay type: binding; set-up: key to Rate enhancement, Cdk2 H71C: rate constant with Cdk2 ÷ rate constant with model thiol (fold); conditions: additional mutation C177A; for Rate constant with Cdk2 H71C: Protein: Cdk2, cysteine position H71C, in h^-1
T4 construct: poly-histidine; made in house; host or cells: E. coli
How it was run: as §1

[5] = Kinetic thiol consumption assay with model thiol glutathione; assay type: physicochemical; set-up: Rate constant with glutathione (k(GSH)): unit not given here; conditions: for Rate constant with glutathione (k(GSH)): 500 μM ligand, 5 μM thiol, phosphate buffer pH 8; for Rate constant with Glutathione: Protein: Glutathione, cysteine position NA, in h-1
How it was run: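 First, 5 μM glutathione in degassed phosphate buffer (pH 8) receives immobilized TCEP beads (2% v/v). Then acrylamide is added and plates incubate 1 h at room temperature. Finally, fluorescence (380/470 nm) is normalized and fitted to first-order decay for rate constants.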

[6] = target: T5, Cdk2(R122C) (C177A) (Homo sapiens, UniProt P24941, C177A/R122C); assay: Kinetic thiol consumption assay with Cdk2 mutant R122C; assay type: binding; set-up: key to Rate enhancement, Cdk2 R122C: rate constant with Cdk2 ÷ rate constant with model thiol (fold); conditions: additional mutation C177A; for Rate constant with Cdk2 R122C: Protein: Cdk2, cysteine position R122C, in h-1
T5 construct: poly-histidine; made in house; host or cells: E. coli
How it was run: as §1

[7] = target: T6, Cdk2(N272C) (C177A) (Homo sapiens, UniProt P24941, C177A/N272C); assay: Kinetic thiol consumption assay with Cdk2 mutant N272C; assay type: binding; set-up: key to Rate enhancement, Cdk2 N272: rate constant with Cdk2 ÷ rate constant with model thiol (fold); conditions: for Rate enhancement, Cdk2 N272: Cdk2 N272, additional mutation C177A; for Rate constant with Cdk2 N272C: Protein: Cdk2, cysteine position N272C, additional mutation C177A, in h^-1
T6 construct: poly-histidine; made in house; host or cells: E. coli
How it was run: as §1

[8] = target: T7, human cyclin-dependent kinase 2 (Cdk2) (Homo sapiens, UniProt P24941); assay: Kinetic thiol consumption assay with wild type Cdk2 (C177); assay type: binding; set-up: key to Rate enhancement, Cdk2 WT: k(Cdk2) divided by k(model thiol); Rate constant with Cdk2 (k(Cdk2)): unit not given here; conditions: for Rate constant with Cdk2 (k(Cdk2)): 500 μM ligand, 5 μM thiol, phosphate buffer pH 8; for Rate enhancement, Cdk2 WT: no additional mutations; for Rate constant with Cdk2 WT: Protein: Cdk2, cysteine position WT, in h^-1; for k(Cdk2)/k(Cdk2_mut) rate enhancement: model thiol Cdk2[C177A, F80C, K278C]; for k(Cdk2)/k(GSH) rate enhancement: model thiol glutathione
T7 construct: poly-histidine; made in house; host or cells: E. coli
How it was run: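 Thiol 5 μM (Cdk2 or model thiol), degassed phosphate buffer pH 8, TCEP beads 2% v/v. Plates incubated 1 h RT, ex/em 380/470 nm. First-order decay fit → rate constant; ratio Cdk2/model thiol = rate enhancement.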

[9] = target: T8, Cdk2(C177A, F80C) (Homo sapiens, UniProt P24941, C177A/F80C); assay: Kinetic thiol consumption assay with Cdk2 mutant F80C, incl. kobs versus concentration (Kd, k2); assay type: binding; set-up: key to Rate enhancement, Cdk2 F80C: Cdk2 rate constant divided by model-thiol rate constant; conditions: additional mutation C177A; for Rate constant with Cdk2 F80C: Protein: Cdk2, cysteine position F80C, in h^-1
T8 construct: poly-histidine; made in house; host or cells: E. coli
How it was run: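 His-tagged Cdk2(C177A/F80C) from E. coli or model thiol, 5 μM in degassed phosphate buffer pH 8 with TCEP beads, reacted with acrylamide ligands; fluorescence (ex/em 380/470 nm) normalized to DMSO control and fitted to first-order decay for kobs. Kd and k2 obtained from hyperbolic fit of kobs versus ligand concentration.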

[10] = target: T9, Cdk2(T182C) (C177A) (Homo sapiens, UniProt P24941, C177A/T182C); assay: Kinetic thiol consumption assay with Cdk2 mutant T182C; assay type: binding; set-up: key to Rate enhancement, Cdk2 T182C: rate constant with Cdk2 ÷ rate constant with model thiol (fold); conditions: additional mutation C177A; for Rate constant with Cdk2 T182C: Protein: Cdk2, cysteine position T182C, in h^-1
T9 construct: poly-histidine; made in house; host or cells: E. coli
How it was run: as §1

| Rate constant with Cdk2[C177A, F80C, K278C] (k(Cdk2_mut)) [1] | Rate enhancement, Cdk2 S181C [2] | Rate enhancement, Cdk2 S276C [3] | Rate constant with Cdk2 S276C [3] | Rate enhancement, Cdk2 H71C [4] | Rate constant with Cdk2 H71C [4] | Rate enhancement, Cdk2 R122C [6] | Rate enhancement, Cdk2 N272 [7] | Rate constant with Cdk2 N272C [7] | Rate constant with Cdk2 (k(Cdk2)) [8] | Rate enhancement, Cdk2 WT [8] | Rate constant with Cdk2 WT [8] | k(Cdk2)/k(Cdk2_mut) rate enhancement [8] | k(Cdk2)/k(GSH) rate enhancement [8] | Rate enhancement, Cdk2 F80C [9] | Rate constant with Cdk2 F80C [9] | Rate enhancement, Cdk2 T182C [10] | Rate constant with Cdk2 T182C [10] | Structure (SMILES) | Rate constant with glutathione (k(GSH)) [5] | Rate constant with Glutathione [5] | also measured |
| --- | --- | --- | --- | --- | --- | --- | --- | --- | --- | --- | --- | --- | --- | --- | --- | --- | --- | --- | --- | --- | --- |
| 0.1192 | 1.116 | 2.167 | 0.0278 | 0.809 | 0.01038 | 0.6834 | 0.3525 | 0.004522 | 0.03272 | 2.55 | 0.03272 | 0.2745 | 2.536 | 11.9 | 0.1527 | 9.969 | 0.1279 | C=CC(=O)Nc1cccc(C(=O)c2ccccc2)c1 [CA-218] | 0.0129 | 0.01283 | Rate constant with Cdk2 S181C [2]: 0.01432; Rate constant with Cdk2 R122C [6]: 0.008768 |
| 0.00766 | 1.469 | 1.074 | 0.01284 | 0.8653 | 0.01034 | 0.5786 | 1.056 | 0.01262 | 0.00589 | 0.4929 | 0.00589 | 0.7691 | 0.489 | 1.645 | 0.01966 | 1.7 | 0.02031 | C=CC(=O)N1CCCC1c1cnc2ccccc2c1 (stereo not shown) [EL-1064] | 0.01205 | 0.01195 | Rate constant with Cdk2 S181C [2]: 0.01756; Rate constant with Cdk2 R122C [6]: 0.006914 |
| 0.00358 | 0 | 0.1717 | 0.0006465 | 0.8417 | 0.003169 | 0 | 0.5596 | 0.002107 | 0.00155 | 0.4112 | 0.001548 | 0.4329 | 0.3045 | 0.1623 | 0.000611 | 1.292 | 0.004866 | C=CC(=O)NCCNC(=O)C1CCCN1S(=O)(=O)c1ccccc1 (stereo not shown) [CA-224] | 0.00508 | 0.003765 |  |

Source: patent US11415579B2, “Assay for measuring a rate of reaction between a target and a ligand candidate” (Imperial College Innovations Ltd., priority 2016, dated 2022)
